{"source": "patent US20250002954A1", "about": "“Novel Compound, Use Thereof, and Method for Producing Same, and Compound-Containing Composition, Method for Producing 4-Trehalosamine, and Microorganism” (Microbial Chemistry Research Foundation, priority 2021, published 2025)", "key": {"[1]": {"system": "Mycobacterium smegmatis mc^2 (ATCC 700084)", "assay": "Staining of mycobacterium with IMCTA-fluorescein, IMCTA-biotin or IMCTA-azide", "assay_type": "cell-based"}, "[2]": {"system": "Mycobacterium smegmatis bacterial cells", "assay": "TLC analysis of lipid components of IMCTA-fluorescein stained cells", "assay_type": "cell-based", "details": "bacterial cells which had ingested IMCTA-fluorescein", "description": "TLC analysis was performed on the lipid components of bacterial cell suspension of Mycobacterium smegmatis bacterial cells stained with IMCTA-fluorescein in test example 11-1 or bacterial cell suspension of Mycobacterium smegmatis bacterial cells treated with DMSO.\nThe TLC analysis was performed based on the method of Kai et al. (M. Kai et al., FEBS Lett 2007, 581, p. 3345-3350).\nThe bacterial cell suspension of Mycobacterium smegmatis bacterial cells stained with IMCTA-fluorescein in test example 11-1 or the bacterial cell suspension of Mycobacterium smegmatis bacterial cells treated with DMSO was centrifuged at 21,300×g for 1 minute. […]\nIn the TLC analysis, a Silica gel 60 TLC plate (manufactured by Merck) was used and the solvent was developed with chloroform/methanol/acetone/acetonitrile (90:10:6:1, v/v). The lipid as a whole was detected with phosphomolybdic acid solution similar to that in test example 1 and fluorescence was detected with a UV trans-illuminator (NTFM-20, manufactured by Analytik Jena US LLC).\nThe phosphomolybdic acid staining patterns for the entire component are shown in FIG. 26A and the fluorescence detection patterns are shown in FIG. 26B. […] In FIG. 26B, the arrows indicate components for which fluorescence is seen only in the IMCTA-fluorescein treated sample."}}, "data": [{"smiles": "O=C(N[C@@H]1C(CO)O[C@H](O[C@H]2OC(CO)[C@@H](O)C(O)C2O)C(O)C1O)c1ccc2c(c1)C(=O)OC21c2ccc(O)cc2Oc2cc(O)ccc21", "note": "(stereo partly shown) [IMCTA-fluorescein]", "values": [{"measurement": "ingestion into bacterial cells and fluorescence (staining)", "setting": "[1]; 10 μg/mL IMCTA-fluorescein, 30 μg/mL IMCTA-biotin, 10 μg/mL IMCTA-azide, 37° C., 8 hours", "value": "ingested into Mycobacterium smegmatis bacterial cells and emitted fluorescence"}, {"measurement": "ingestion in the presence of sucrose (blocking)", "setting": "[1]; sucrose 1% or 3%", "value": "no significant inhibition"}, {"measurement": "ingestion in the presence of trehalose (blocking)", "setting": "[1]; trehalose 1% or 3%", "value": "inhibition was observed in the presence of 1% trehalose"}, {"measurement": "fluorescent lipids detected by TLC", "setting": "[2]", "value": "two fluorescent lipids were detected"}]}]}
